Consider nine compounds from publication PMC7998250, “Temperate Zone Plant Natural Products—A Novel Resource for Activity against Tropical Parasitic Diseases” (Pharmaceuticals, 2021).

Data set [1] concerns L. mexicana axenic amastigotes. Put plainly: Concentration-response EC50, L. mexicana axenic amastigotes (WT). It counts as cell-based, Leishmania mexicana.
Text: Initial hits from the parasite panel screen were taken forward in log concentration versus normalised response assays to estimate the half maximal effective concentration (EC50) in hit species as well as the half maximal cytotoxic concentrations (CC50) in the human hepatoma cell line HepG2 as a preliminary test for selectivity. Using CC50/EC50 to define the selectivity index (SI), the selectivity for each compound in a defined species compared to a human cell line was estimated and compared to the EC50 (Figure 3).
EC50 values were determined by serial two-fold dilution of each compound in 96 well plates. Culture conditions and viability assays were as stated for the initial screen, with some exceptions. L. mexicana and L. donovani axenic amastigotes were seeded at 2 × 10^6 cell/s mL, T. brucei and T. evansi were seeded at 2 × 10^5 cells/mL. For cytotoxicity studies, HepG2 cells were seeded at 1 × 10^5 cells/mL, incubated for 48 h and viability was assessed using the Alamar Blue assay [66, 67]. […] Normalised growth and viability data (compared to untreated controls) were plotted against Log10 concentration to estimate EC50 in GraphPad (Prism v6).
The subject of data set [2] is L. mexicana axenic amastigotes. Nature of the data set: Initial screen, L. mexicana axenic amastigotes, Alamar Blue. It counts as cell-based, Leishmania mexicana. Particulars: for initial hit against L. mexicana: growth inhibited by ≥80%; for activity at 2 µM / inhibition of growth at 2 µM: Leishmania mexicana; for inhibition of growth at 2 µM: read-out: initial hit L.m. Put shortly:
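Purified temperate plant natural products from a commercial library (1 mg/mL in DMSO) were tested against Leishmania mexicana axenic amastigotes at a final 2 μM. Parasites were seeded at 1 × 10^6 cells/mL in 96-well plates containing 200 μL culture and incubated 72 h. Growth was measured by Alamar Blue and normalised to DMSO controls (1% v/v), with triplicates over two biological replicates (n = 6).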
Background: The colour change of resazurin is a common sign of viable cells or microbes.

Data set [3] has as its system T. evansi bloodstream form. Nature of the data set: Initial screen, T. evansi bloodstream form, Alamar Blue. It counts as cell-based, Trypanosoma evansi. The settings on record: for activity at 1 µM / inhibition of growth at 1 µM: Trypanosoma evansi; for inhibition of growth at 1 µM: read-out: initial hit T.e. Put shortly:
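Bloodstream-form T. evansi Antat 3/3 and T. brucei Lister 427 were grown in HMI-11 with 10% FBS at 37 °C. Parasites were plated at 1×10^5 cells/mL with compound at 1 μM (T. evansi) or 2 μM (T. brucei) for 48 h, and growth was read by Alamar Blue relative to 1% DMSO controls (n = 6).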

A short description of data set [4]: Cytotoxicity CC50, differentiated THP-1, Alamar Blue. The format is cell-based, human. The settings on record: human.
Setting [5] is: Leishmania mexicana, 72 h, read-out: L. mexicana EC50, axenic amastigotes, 72 h.
The mark [6] stands for this setting: read-out: % growth L. mexicana, mean % growth compared to a normalised control with same concentration of DMSO solvent, initial screen.
Setting [7] is: mean % growth compared to a normalised control with same concentration of DMSO solvent, initial screen, read-out: % growth T. evansi.
The mark [8] stands for this setting: initial screen, compared to a normalised control with same concentration of DMSO solvent.
Where [9] appears, read: read-out: mean % growth, L. mexicana, initial screen, compared to a normalised control with same concentration of DMSO solvent.
Setting [10] is: read-out: mean % growth, T. evansi, initial screen, compared to a normalised control with same concentration of DMSO solvent.
[11] abbreviates: differentiated THP-1, 48 h, read-out: THP1 CC50.

SMILES strings stand for the structures. Where two headings read alike, the source gives them in different places. Bounds are passed on as bounds.

The EC50 is the midpoint of the concentration-response curve. For orientation: CC50 means the concentration at which the toxic effect on the cells reaches its halfway point.

For the compound `CC1=CC(O)(CC(C)C2(C)CC=C3C4=CCC5C(C)(C)C(O)CCC5(C)C4CCC32C)OC1=O` (centres unmarked) [Compound 700022], the concentration for a half-maximal effect (EC50) turned out to be 250 nM in data set [1] (setting [5]) and 240 nM in data set [1] (Leishmania mexicana, read-out: WT EC50, L. mexicana WT axenic amastigotes). Besides, the “initial hit against L. mexicana” value in data set [2] (2 μM) was “initial hits”. The activity at 2 µM in data set [2] (setting [6]) worked out at 0.54%. The inhibition of growth at 2 µM in data set [2] (2 μM, x = initial hit) was > 80%. Besides, in data set [3] (setting [7]), the activity at 1 µM was 70.8%. In data set [4] (THP1 CC50), this compound came in with a CC50 at 48 h of 17000 nM.

Consider `CC1OC(OC2C(OC(=O)C3CC[C@@H]4[C@H](C3)OC3(CC(OC(=O)/C=C/c5ccccc5)[C@@H](C)CO3)C43CO3)OC(CO)C(O)C2O)C(O)C(O)C1O` (some centres unmarked) [Compound 700042], for which the activity at 2 µM in data set [2] (setting [6]) was 79.1%. The activity at 1 µM in data set [3] (read-out: % growth T. evansi, mean % growth compared to a normalised control with same concentration of DMSO solvent, initial screen) is 40.2%. The inhibition of growth at 1 µM in data set [3] was > 50%.

For the compound `CC1=CC(O)(CC(C)C2(C)CCC3C4=CCC5C(C)(CCC(O)C5(C)C)C4=CCC32C)OC1=O` (centres unmarked) [Compound 700107], in data set [1] (setting [5]), the EC50 was 260 nM. The “initial hit against L. mexicana” value in data set [2] (2 μM) is recorded as “initial hits”. The activity at 2 µM in data set [2] (setting [6]) stood at 8.1%. Moreover, the inhibition of growth at 2 µM in data set [2] (2 μM, x = initial hit) is > 80%. The activity at 1 µM in data set [3] (setting [7]) is 66.5%. The compound also yielded a CC50 at 48 h in data set [4] (THP1 CC50) of 27000 nM.

With `CC1=CC(O)(CC(C)C2(C)CC=C3C4=CCC5C(C)(C)C(=O)CCC5(C)C4CCC32C)OC1=O` (centres unmarked) [Compound 700136], the EC50 in data set [1] (setting [5]) is 210 nM. Moreover, the “initial hit against L. mexicana” value in data set [2] (2 μM) is given as “initial hits”. In addition, the activity at 2 µM in data set [2] (setting [6]) is -0.4%. Further, the inhibition of growth at 2 µM in data set [2] (2 μM, x = initial hit) was > 80%. In addition, the activity at 1 µM in data set [3] (setting [7]) came to 76.2%. For the same compound, the CC50 at 48 h in data set [4] (THP1 CC50) is 17000 nM.

Consider `C/C(=C/C(=O)CC(C)C1CCC2(C)C3=CCC4C(C)(C)C(=O)CCC4(C)C3CCC12C)C(=O)O` (centres unmarked) [Compound 700240], for which the concentration for a half-maximal effect (EC50) in data set [1] (setting [5]) turned out to be 510 nM. Further, in data set [2] (2 μM), the “initial hit against L. mexicana” value is recorded as “initial hits”. The activity at 2 µM in data set [2] (setting [6]) was -10.1%. Also, the inhibition of growth at 2 µM in data set [2] (2 μM, x = initial hit) was > 80%. Moreover, the activity at 1 µM in data set [3] (setting [7]) turned out to be 120%. In addition, the CC50 at 48 h in data set [4] (THP-1 cells differentiated into macrophages with PMA, differentiated THP-1, 48 h, read-out: THP1 CC50) stood at 13500 nM.

As for `C=C1C(=O)OC2CC(C)C3C=CC(=O)C3(C)C(OC(C)=O)C12` (centres unmarked) [Compound 701155], in data set [1] (read-out: L. mexicana EC50, axenic amastigotes, 72 h), the EC50 is 230 nM. Also, the “initial hit against L. mexicana” value in data set [2] (2 μM) is reported as “initial hits”. Besides, in data set [2] (setting [8]), the “mean % growth, L. mexicana” value is -0.28%. Also, the inhibition of growth at 1 µM in data set [3] was > 50%. Further, the “mean % growth, T. evansi” value in data set [3] (setting [8]) is reported as 1.0%.

Consider `C=C1C(=O)OC2CC(C)C3C=CC(=O)C3(C)C(OC(=O)C(C)C)C12` (centres unmarked) [Compound 701157], for which the EC50 in data set [1] (setting [5]) is 200 nM. The “initial hit against L. mexicana” value in data set [2] (2 μM) is given as “initial hits”. In data set [2], the inhibition of growth at 2 µM is > 80%. For the same compound, in data set [2] (setting [9]), the activity at 2 µM stood at 0.07%. Further, in data set [3], the inhibition of growth at 1 µM is > 50%. The activity at 1 µM in data set [3] (setting [10]) is -4.3%. Besides, in data set [4] (setting [11]), the CC50 at 48 h was found to be 730 nM.

Turning to `C=C1C(=O)OC2CC(C)C3C=CC(=O)C3(C)C(OC(=O)C(C)CC)C12` (centres unmarked) [Compound 701158], in data set [1] (setting [5]), the EC50 came out at 240 nM. Also, the “initial hit against L. mexicana” value in data set [2] (2 μM) was “initial hits”. In addition, in data set [2], the inhibition of growth at 2 µM is > 80%. In addition, the activity at 2 µM in data set [2] (setting [9]) was -1.7%. Further, the inhibition of growth at 1 µM in data set [3] is > 50%. The activity at 1 µM in data set [3] (setting [10]) was determined as 0.454%. The CC50 at 48 h in data set [4] (setting [11]) was found to be 290 nM.

Take `C=C1C(=O)OC2CC(C)C3C(OC)CC(=O)C3(C)C(OC(=O)C(C)CC)C12` (centres unmarked) [Compound 701159]: in data set [1] (setting [5]), the concentration giving a half-maximal response (EC50) is 870 nM. Moreover, the “initial hit against L. mexicana” value in data set [2] (2 μM) is on record as “initial hits”. The activity at 2 µM in data set [2] (setting [9]) stood at 1.5%. Also, in data set [2] (2 μM, x = initial hit), the inhibition of growth at 2 µM is > 80%. In addition, in data set [3] (initial screen, compared to a normalised control with same concentration of DMSO solvent, read-out: mean % growth, T. evansi), the activity at 1 µM worked out at 82%. Besides, in data set [4] (setting [11]), the CC50 at 48 h is 1420 nM.
